The target of one assay is VHL Elongin B/C complex (Homo sapiens (Human), UniProt P40337). The experiment in a line: Fluorescence Polarization (FP) VHL Binding Assay. The following applies: VHL binding, FP assay; geometric mean where more than one measurement. The method, boiled down:
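FP tracer competition using His6-tagged human VHL (E55-D213) co-expressed with Elongin B and C in E. coli, final 2.64 nM, with TAMRA-labelled VHL ligand probe at 1.67 nM final. Buffer 50 mM Tris pH 8.0, 120 mM NaCl, 0.005% NP-40, 1% DMSO; 1 h at room temperature. Pre-assay compound/protein signal subtracted; IC50 from four-parameter fit.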
(In general: In fluorescence polarisation assays a small probe gives low polarisation when free and higher when bound to something large.)

Assay [1] deals with VHL co-expressed with Elongins B and C (Homo sapiens (Human), UniProt P40337). The experiment in a line: Surface Plasmon Resonance Assay. The following applies: SPR measured VHL affinity; geometric mean where more than one measurement. It counts as binding. A digest of the protocol:
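Avidin-tagged VHL co-expressed with Elongins B and C captured on a streptavidin chip. Compounds injected low-to-high concentration at 20 °C and 80 μL/min in 50 mM HEPES pH 7.2, 150 mM NaCl, 0.5 mM TCEP, 0.001% Tween 20, 0.2% PEG3350, 2% DMSO. Kinetic parameters from fits of binding curves.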
On the technique in general: Surface plasmon resonance follows binding to a sensor surface in real time, without labels.

The target in assay [2] is NanoLuc VHL fusion protein (Homo sapiens (Human), UniProt P40337). The experiment in a line: VHL HEK-293 BRET Assay (NanoBRET Target Engagement). The following applies: geometric mean where more than one measurement. It counts as cell-based. The method, boiled down: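 HEK293 cells stably expressing NanoLuc-VHL, 2 h with compound titration and 1 uM final tracer, then Nano-Glo substrate plus extracellular NanoLuc inhibitor. BRET ratio 610/460 nm, background-corrected with no-tracer wells, normalised to DMSO and 10 uM unlabeled VHL antagonist controls; IC50 by four-parameter fit.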
NanoLuc VHL fusion protein, sequence (P40337 whole entry, looked up, the tested form may be a part): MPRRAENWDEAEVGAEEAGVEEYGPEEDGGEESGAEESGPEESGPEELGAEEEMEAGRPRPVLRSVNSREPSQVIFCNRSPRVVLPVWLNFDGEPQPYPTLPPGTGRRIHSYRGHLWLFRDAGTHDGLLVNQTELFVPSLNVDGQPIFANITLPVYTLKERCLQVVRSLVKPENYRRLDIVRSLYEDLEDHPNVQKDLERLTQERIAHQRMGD
NanoLuc VHL fusion protein, sequence (Q15370 whole entry partner, looked up, the tested form may be a part): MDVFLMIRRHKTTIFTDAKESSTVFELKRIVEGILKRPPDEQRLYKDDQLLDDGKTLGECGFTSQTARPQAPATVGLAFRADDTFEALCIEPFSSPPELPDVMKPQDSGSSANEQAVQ
NanoLuc VHL fusion protein, sequence (Q15369 whole entry partner, looked up, the tested form may be a part): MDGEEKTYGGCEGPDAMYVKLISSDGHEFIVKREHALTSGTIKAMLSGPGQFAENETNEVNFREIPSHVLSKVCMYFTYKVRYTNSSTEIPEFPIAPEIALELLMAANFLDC

VHL co-expressed with Elongins B and C, sequence (P40337 whole entry, looked up): as the sequence (P40337 whole entry, looked up, the tested form may be a part) above
VHL co-expressed with Elongins B and C, sequence (Q15370 whole entry partner, looked up): as the sequence (Q15370 whole entry partner, looked up, the tested form may be a part) above
VHL co-expressed with Elongins B and C, sequence (Q15369 whole entry partner, looked up): as the sequence (Q15369 whole entry partner, looked up, the tested form may be a part) above
VHL Elongin B/C complex, sequence (P40337 whole entry, looked up): as the sequence (P40337 whole entry, looked up, the tested form may be a part) above
VHL Elongin B/C complex, sequence (Q15370 whole entry partner, looked up): as the sequence (Q15370 whole entry partner, looked up, the tested form may be a part) above
VHL Elongin B/C complex, sequence (Q15369 whole entry partner, looked up): as the sequence (Q15369 whole entry partner, looked up, the tested form may be a part) above

For orientation: IC50 means the point on the concentration scale where inhibition reaches its midpoint. One may read the Kd as the concentration at which binding is half-saturated. Read a high Kd as a looser complex. On to `Cc1noc(C(C(=O)N2C[C@H](O)CC2C2=NC(=O)[C@](C)(c3ccc(-c4scnc4C)cc3)N2)C(C)C)n1` (single isomer, unassigned) [Example 117.2], for which the values for the IC50 (at VHL Elongin B/C complex; in assay [2]) were 1.62 µM and 1.9 µM, respectively. This compound also displayed a Kd in assay [1] of 0.625 µM.

Turning to `Cc1ncsc1-c1ccc([C@]2(C)NC(C3C[C@@H](O)CN3C(=O)[C@@H](NC(=O)C3(C#N)CC3)C(C)(C)C)=NC2=O)cc1` (single isomer, unassigned) [Example 111.2], the half-maximal inhibitory concentration (IC50) amounted to 4.97 µM on VHL Elongin B/C complex and 5.11 µM in assay [2]. In addition, the dissociation constant Kd in assay [1] came to 1.86 µM.

With `Cc1cc([C@@H](C(=O)N2C[C@H](O)C[C@H]2C2=NOC(c3ccccc3)(c3ccccc3)N2)C(C)C)on1` [Example 132.1, (S)-1-((2S,4R)-2-(5,5-diphenyl-4,5-dihydro-1,2,4-oxadiazol-3-yl)-4-hydroxypyrrolidin-1-yl)-3-methyl-2-(3-methylisoxazol-5-yl)butan-1-one], the half-inhibitory concentration (IC50) at VHL Elongin B/C complex was at least 400 µM; in assay [2] it was 100 µM. The compound further yielded a Kd in assay [1] of at least 150 µM.

As to `Cc1cc([C@H](C(=O)N2C[C@H](O)C[C@H]2C2=NO[C@](c3ccccc3)(C(F)(F)F)N2)C(C)C)on1` (mixture of isomers) [Example 114.2, (2S)-1-((2S,4R)-4-Hydroxy-2-(5-phenyl-5-(trifluoromethyl)-4,5-dihydro-1,2,4-oxadiazol-3-yl)pyrrolidin-1-yl)-3-methyl-2-(3-methylisoxazol-5-yl)butan-1-one and (2R)-1-((2S,4R)-4-Hydroxy-2-(5-phenyl-5-(trifluoromethyl)-4,5-dihydro-1,2,4-oxadiazol-3-yl)pyrrolidin-1-yl)-3-methyl-2-(3-methylisoxazol-5-yl)butan-1-one], the half-maximal inhibitory concentration (IC50) on VHL Elongin B/C complex came to 400 µM; in assay [2], 100 µM. In assay [1], this compound yielded a Kd of 150 µM.

For the compound `Cc1ncsc1-c1ccc([C@]2(C)NC(C3C[C@@H](O)CN3C(=O)C3N(S(C)(=O)=O)CCC3(C)C)=NC2=O)cc1` (single isomer, unassigned) [Example 125.1], the 50% inhibitory concentration (IC50) is 179 µM at VHL Elongin B/C complex and 100 µM in assay [2]. For the same compound, the Kd in assay [1] turned out to be 14.7 µM.

In the case of `Cc1cc([C@H](C(=O)N2C[C@H](O)C[C@H]2C2=NOC(C)(c3ccc(-c4scnc4C)cc3)N2)C(C)C)on1` (single isomer, unassigned) [Example 129.4], the IC50 on VHL Elongin B/C complex was 0.202 µM; in assay [2], 0.239 µM. In assay [1], this compound showed a dissociation constant Kd of 0.0438 µM.

With `Cc1cc([C@H](C(=O)N2C[C@H](O)C[C@H]2C2=NOC(c3ccc(Br)cc3)(C(F)(F)F)N2)C(C)C)on1` (single isomer, unassigned) [Example 133.3], the results for the concentration for half-maximal inhibition (IC50) (on VHL Elongin B/C complex; in assay [2]) were 34.4 µM and 22.6 µM, respectively. For the same compound, the dissociation constant (Kd) in assay [1] amounted to 36.3 µM.

In the case of `Cc1cc([C@H](C(=O)N2C[C@H](O)C[C@H]2C2=NOC(c3ccccc3)(c3ccccc3)N2)C(C)C)on1` [Example 132.2, (R)-1-((2S,4R)-2-(5,5-diphenyl-4,5-dihydro-1,2,4-oxadiazol-3-yl)-4-hydroxypyrrolidin-1-yl)-3-methyl-2-(3-methylisoxazol-5-yl)butan-1-one], the IC50 is 45.7 µM at VHL Elongin B/C complex and 39.4 µM in assay [2]. Moreover, the equilibrium dissociation constant (Kd) in assay [1] was 12.6 µM.

As for `CC(=O)N1CCCCC1C(=O)N1C[C@H](O)CC1C1=NC(=O)[C@](C)(c2ccc(-c3scnc3C)cc2)N1` (single isomer, unassigned) [Example 124.3], the values for the IC50 (on VHL Elongin B/C complex; in assay [2]) were at least 400 µM and 100 µM, respectively. In assay [1], the Kd is at least 150 µM.

`Cc1cc([C@@H](C(=O)N2C[C@H](O)C[C@H]2C2=NOC(C)(c3ccc(-c4scnc4C)cc3)N2)C(C)C)on1` (single isomer, unassigned) [Example 129.1]: the IC50 at VHL Elongin B/C complex was 79 µM; in assay [2] it was 100 µM. In addition, the Kd in assay [1] is 48.1 µM.

For `Cc1cc([C@H](C(=O)N2C[C@H](O)C[C@H]2C2=NOC(C)(c3ccccc3)N2)C(C)C)on1` (single isomer, unassigned) [Example 128.3], the values for the IC50 (at VHL Elongin B/C complex; in assay [2]) were 33.6 µM and 10.7 µM, respectively. The compound further had a dissociation constant (Kd) in assay [1] of 5.7 µM.

`Cc1cc(C(C(=O)N2C[C@H](O)CC2C2=NC(=O)[C@](C)(c3ccc(-c4scnc4C)cc3)N2)C(C)C)sn1` (single isomer, unassigned) [Example 119.4]: the figures for the IC50 (at VHL Elongin B/C complex; in assay [2]) were at least 400 µM and 100 µM, respectively. The same compound displayed a Kd in assay [1] of 150 µM.

On to `Cc1noc(C(C(=O)N2C[C@H](O)CC2C2=NC(=O)[C@](C)(c3ccc(-c4scnc4C)cc3)N2)C(C)C)n1` (single isomer, unassigned) [Example 117.4], for which the IC50 at VHL Elongin B/C complex is at least 400 µM; in assay [2], 100 µM. Besides, the Kd in assay [1] was 150 µM.

For `CC/C(=C(\c1ccc(O)cc1)c1ccc(OCCN(C)C(=O)CCCOCCOc2cc(C(C(=O)N3C[C@H](O)CC3C3=NC(=O)[C@](C)(c4ccc(-c5scnc5C)cc4)N3)C(C)C)on2)cc1)c1ccccc1` (single isomer, unassigned) [Example 1003.3], the results for the IC50 (at VHL Elongin B/C complex; in assay [2]) were 30.4 µM and 51.6 µM, respectively. This compound displayed a Kd in assay [1] of 67.1 µM.

Turning to `Cc1ncsc1-c1ccc([C@]2(C)NC(C3C[C@@H](O)CN3C(=O)C(c3cc(O)no3)C(C)C)=NC2=O)cc1` (single isomer, unassigned) [Example 116.1], the concentration for half-maximal inhibition (IC50) came to 4.35 µM at VHL Elongin B/C complex and 100 µM in assay [2]. Besides, the Kd in assay [1] is 5.1 µM.

Consider `Cc1cc([C@H](C(=O)N2C[C@H](O)C[C@H]2C2=NO[C@@](c3ccccc3)(C(F)(F)F)N2)C(C)C)on1` (mixture of isomers) [Example 114.3, (2S)-1-((2S,4R)-4-Hydroxy-2-(5-phenyl-5-(trifluoromethyl)-4,5-dihydro-1,2,4-oxadiazol-3-yl)pyrrolidin-1-yl)-3-methyl-2-(3-methylisoxazol-5-yl)butan-1-one and (2R)-1-((2S,4R)-4-Hydroxy-2-(5-phenyl-5-(trifluoromethyl)-4,5-dihydro-1,2,4-oxadiazol-3-yl)pyrrolidin-1-yl)-3-methyl-2-(3-methylisoxazol-5-yl)butan-1-one], for which the concentration for half-maximal inhibition (IC50) on VHL Elongin B/C complex is 47 µM; in assay [2] it was 48.8 µM. Besides, binding in assay [1] was characterised by a dissociation constant (Kd) of 8.8 µM.

Turning to `Cc1cc([C@H](C(=O)N2C[C@H](O)C[C@H]2C2=NOC(c3ccc(Br)cc3)(C(F)(F)F)N2)C(C)C)on1` (single isomer, unassigned) [Example 133.4], the IC50 at VHL Elongin B/C complex stood at 54.9 µM; in assay [2], 52.3 µM. The compound also had a dissociation constant (Kd) in assay [1] of 17.4 µM.

For the compound `Cc1ncsc1-c1ccc([C@]2(C)NC(C3C[C@@H](O)CN3C(=O)C(c3cn(C)nn3)C(C)C)=NC2=O)cc1` (single isomer, unassigned) [Example 118.4], the 50% inhibitory concentration (IC50) on VHL Elongin B/C complex is at least 400 µM; in assay [2], 100 µM. The Kd in assay [1] came out at 102 µM.

For the compound `Cc1cc(C(C(=O)N2C[C@H](O)C[C@H]2C2=NN(c3ccccc3)C(C)(C)N2)C(C)C)on1` (single isomer, unassigned) [Example 135.2], the IC50 on VHL Elongin B/C complex amounted to 9.32 µM; in assay [2] it was 5.67 µM. In assay [1], this compound registered a dissociation constant Kd of 6.55 µM.

In the case of `Cc1ncsc1-c1ccc([C@]2(C)NC(C3C[C@@H](O)CN3C(=O)C(c3cn(C)nn3)C(C)C)=NC2=O)cc1` (single isomer, unassigned) [Example 118.2], the values for the concentration for half-maximal inhibition (IC50) (at VHL Elongin B/C complex; in assay [2]) were 0.418 µM and 0.939 µM, respectively. Also, the affinity in assay [1], expressed as Kd, was 0.128 µM.

As to `Cc1cc(C(C(=O)N2C[C@H](O)CC2C2=NC(=O)[C@](C)(c3ccc(-c4scnc4C)cc3)N2)C(C)C)sn1` (single isomer, unassigned) [Example 119.1], the IC50 on VHL Elongin B/C complex is at least 400 µM; in assay [2], 100 µM. This compound displayed a Kd in assay [1] of 150 µM.

Turning to `Cc1ncsc1-c1ccc([C@]2(C)NC(C3C[C@@H](O)CN3C(=O)C(c3cnn(C)c3)C(C)C)=NC2=O)cc1` (single isomer, unassigned) [Example 110.2], the 50% inhibitory concentration (IC50) is at least 400 µM at VHL Elongin B/C complex and at least 100 µM in assay [2]. The dissociation constant Kd in assay [1] was 104 µM.

As to `Cc1ncsc1-c1ccc([C@]2(C)NC(C3C[C@@H](O)CN3C(=O)C(c3cn(C)nn3)C(C)C)=NC2=O)cc1` (single isomer, unassigned) [Example 118.1], the IC50 on VHL Elongin B/C complex turned out to be 157 µM; in assay [2], 100 µM. The Kd in assay [1] is 61.5 µM.

`Cc1cc([C@H](C(=O)N2C[C@H](O)C[C@H]2C2=NOC3(CCCC3)N2)C(C)C)on1` [Example 127.2, (R)-1-((2S,4R)-4-hydroxy-2-(1-oxa-2,4-diazaspiro[4.4]non-2-en-3-yl)pyrrolidin-1-yl)-3-methyl-2-(3-methylisoxazol-5-yl)butan-1-one]: the 50% inhibitory concentration (IC50) on VHL Elongin B/C complex turned out to be 50.8 µM; in assay [2], 73.2 µM. In assay [1], this compound yielded a Kd of 16.4 µM.

`Cc1ncsc1-c1ccc([C@]2(C)NC(C3C[C@@H](O)CN3C(=O)C(c3cnn(C)c3)C(C)C)=NC2=O)cc1` (single isomer, unassigned) [Example 110.4]: the results for the IC50 (on VHL Elongin B/C complex; in assay [2]) were at least 400 µM and at least 100 µM, respectively. Besides, the Kd in assay [1] was determined as 150 µM.

On to `Cc1cc([C@H](C(=O)N2C[C@H](O)C[C@H]2C2=NOC(C)(c3ccccc3)N2)C(C)C)on1` (single isomer, unassigned) [Example 128.4], for which the IC50 on VHL Elongin B/C complex worked out at 17.3 µM; in assay [2], 24.5 µM. Further, the Kd in assay [1] stood at 7.5 µM.

These data come from patent US11242344B2, “(4-hydroxypyrrolidin-2-yl)-heterocyclic compounds and methods of use thereof” (Genentech, Inc., priority 2017, dated 2022).
